Assay results from patent US20040047863A1, “Combination therapy using a TNF binding protein for treating TNF-mediated diseases” (Amgen Inc., priority 1996, published 2004).

Key:
adjuvant arthritic rats [1] = assay: Adjuvant-induced arthritis model, combination of sTNFR-II Fc and methotrexate (Example 2); assay type: in vivo, rat
Procedure: An animal model of rheumatoid arthritis induced by an adjuvant was used to investigate the combination therapy of a TNF binding protein and methotrexate in male Lewis rats (5-7/group) weighing at least 200 g.
On day-0, all rats were injected with 100 μl of Freunds Complete Adjuvant (Sigma Chemical Co., St. Louis, Mo.) to which a synthetic adjuvant, N,N-dioctyldecyldecyl-N′, N-bis(2-hydroxy-ethyl) propanediamine, 50 mg/ml, was added. On day 0-14 methotrexate in 1% carboxymethylcellulose (Sigma) was orally administered daily (0.06 mg/kg) to two groups of rats. On days 9, 11, and 13, CHO-derived sTNFR-II/hIgG1 fusion protein (sTNFR-II Fc; prepared generally in accordance with the teachings of EP 418 014) formulated in pharmaceutical composition (34 mM NaCl, 10 mM sodium phosphate, 4% sorbitol (w/v) in water; pH 6.5) was administered by subcutaneous infusion (18 mg/kg) to one group of rats being treated with both Freunds Complete Adjuvant and methotrexate and to another group of rats being treated with Freunds Complete Adjuvant alone.
Body weights were taken on day 0 and every other day from day 9 to termination on day 15. Caliper measurements and clinical scoring were done daily from day 9 until termination on day 15. At this time animal's body, paw and spleen weights were determined.

adjuvant arthritic rats [2] = assay: Adjuvant-induced arthritis model, combination of c105 sTNFR-I dumbbell and methotrexate (Example 1); assay type: in vivo, rat
Procedure: An animal model of rheumatoid arthritis induced by an adjuvant was used to investigate the combination therapy of a TNF binding protein and methotrexate in male Lewis rats (3-7/group) weighing at least 200 g.
On day-0, all rats were injected with 100 μl of Freunds Complete Adjuvant (Sigma Chemical Co., St. Louis, Mo.) to which a synthetic adjuvant, N,N-dioctyldecyldecyl-N′, N-bis(2-hydroxy-ethyl) propanediamine, 50 mg/ml, was added. On days 0-14 methotrexate in 1% carboxymethylcellulose (Sigma) was orally administered daily (0.06 mg/kg) to two groups of rats. On days 8, 10, 12, and 14, E. coli-derived c105 sTNFR-I dimerized with PEG-20,000-bis-vinyl sulfone (c105 sTNFR-I dumbbell; prepared generally in accordance with the teachings of WO 95/34326) formulated in pharmaceutical composition (34 mM NaCl, 10 mM sodium phosphate, 4% sorbitol (w/v) in water; pH 6.5) was administered by subcutaneous (SC) injection (3 mg/kg) to one group of rats being treated with both Freunds Complete Adjuvant and methotrexate and to another group of rats being treated with Freunds Complete Adjuvant alone.
Body weights were taken on day 0 and every other day from day 9 to termination on day 15. Caliper measurements and clinical scoring were done on day 9 and every other day until termination. At this time animal's body, paw and spleen weights were determined.

[3] = test system: MRL-1pr/1pr autoimmune mice challenged with LPS/D-GalNH2; assay: LPS/D-Galactosamine induced lethality model (Example 3); assay type: in vivo, mouse; conditions: N=6
Procedure: The combination immunotherapeutic effects of c105 STNFR-I dumbbell and fas fusion protein were assessed using a mouse model of D-Galactosamine (D-GalNH2) induced lethality. The D-galactosamine (D-GalNH2)/Lipopolysaccharide (LPS) model (Mountz et al., J. Immunology, 155:4829-4837). In this model, MRL-1pr/1pr autoimmune mice are administered D-GalNH2 with bacterial endotoxin (LPS), and lethality is observed through +96 hours post challenge.
After overnight fasting, 6-8 week old female MRL-1pr/1pr mice (Jackson Laboratory, Bar Harbor, Me.) (5/7/group) were cannulated with jugular catheters and allowed to recover for several days. They were then placed in infusion cages and acclimated for a week prior initiating saline infusion.
At hour-0, all mice were injected intraperitoneally with 31 micrograms of D-GalNH2 (Sigma) suspended in Hank's Balanced Salt Solution (Gibco BRL) (120 micrograms/ml); and lipopolysaccharide (LPS) from E. coli Serotype 0127:B8 (Sigma) in sterile, endotoxin-free phosphate buffered saline (PBS) (6 micrograms/mouse).
At 0-hour-+2 hours post-challenge, fas fusion protein formulated in a pharmaceutical composition (Phosphate buffered saline (Gibco BRL, Grand Island, N.Y.)) was administered intravenously in serial 2-fold dilutions (microgram/kg dosages) to two groups of mice. […]

[4] = male Lewis rats, Freunds Complete Adjuvant, sTNFR-II Fc 18 mg/kg subcutaneous days 9, 11, 13, methotrexate 0.06 mg/kg oral daily days 0-14
[5] = final analysis (inhibition at termination, day 15), c105 sTNFR-I dumbbell 3 mg/kg SC, methotrexate 0.06 mg/kg oral daily
[6] = male Lewis rats, Freunds Complete Adjuvant, c105 sTNFR-I dumbbell 3 mg/kg SC days 8, 10, 12, 14, methotrexate 0.06 mg/kg oral daily days 0-14
[7] = male Lewis rats, Freunds Complete Adjuvant, c105 sTNFR-I dumbbell 3 mg/kg SC days 8, 10, 12, 14, methotrexate 0.06 mg/kg oral daily days 0-14, as reported with FIGS. 3 and 4

| Molecule | inhibition of paw inflammation (terminal paw weights) (adjuvant arthritic rats [1]; final analysis (inhibition at termination, day 15), sTNFR-II Fc 18 mg/kg, methotrexate 0.06 mg/kg oral daily) [%] | inhibition of body weight change (adjuvant arthritic rats [1]; [4]) [%] | inhibition of paw swelling (area under the curve—AUC) (adjuvant arthritic rats [1]; [4]) [%] | inhibition of splenomegaly / spleen weight (adjuvant arthritic rats [1]; [4]) [%] | inhibition of body weight change (adjuvant arthritic rats [2]; [5]) [%] | inhibition of paw inflammation (terminal paw weights) (adjuvant arthritic rats [2]; [5]) [%] | inhibition of splenomegaly (terminal spleen weights) (adjuvant arthritic rats [2]; [5]) [%] | inhibition of paw swelling (area under the curve-AUC) (adjuvant arthritic rats [2]; [6]) | inhibition of body weight change (adjuvant arthritic rats [2]; [7]) | inhibition of splenomegaly / spleen weight (adjuvant arthritic rats [2]; [7]) | survival ([3]; c105 sTNFR-I dumbbell 100 micrograms/kg I.V., time=−1 hour before challenge, P<0.01 vs saline control) [%] | protection ([3]; sub-optimal dose 25 micrograms/kg, through +96 hours after challenge) [%] |
| --- | --- | --- | --- | --- | --- | --- | --- | --- | --- | --- | --- | --- |
| N-[4-[(2,4diamino-6-pteridinyl)methylamino]benzoyl]-L-glutamic acid [methotrexate] | 74 | 64 | 66 | 74 | 3 | 3.9 | 8.5 | 26% | 3% | no inhibition | – | – |
| c105 sTNFR-I dumbbell: E. coli-derived c105 sTNFR-I dimerized with PEG-20,000-bis-vinyl sulfone (protein, UniProt P19438 30-211, looked up, extracellular domain c105 truncation; PEG-20000-bis-vinyl sulfone dimer, E. coli-derived c105 sTNFR-I dimerized with PEG-20,000-bis-vinyl sulfone) extracellular domain: LVPHLGDREKRDSVCPQGKYIHPQNNSICCTKCHKGTYLYNDCPGPGQDTDCRECESGSFTASENHLRHCLSCSKCRKEMGQVEISSCTVDRDTVCGCRKNQYRHYWSENLFQCFNCSLCLNGTVHLSCQEKQNTVCTCHAGFFLRENECVSCSNCKKSLECTKLCLPQIENVKGTEDSGTT | – | – | – | – | 13.2 | 10.9 | 30.4 | about 42% | about 13.2% | no significant benefit | 100 | −35 |
